Source: patent publication US9918452B2, “Method and apparatus for controlling herbivore fowl populations” (2345422 Ontario Inc., priority 2013, dated 2018)

Tested on: Canada Geese
Test: Repellent-adulterated feed plus non-adulterated attractant feed in a recreational area
Type: in vivo
Source text: Owing to the problems encountered with both wide-scale repellent spraying and the use of repellent-treated feed on its own, a new approach to controlling the goose population at the site of Example 1 was developed. In this new approach, both repellent-adulterated feed in the form of cracked corn treated with methyl anthranilate, and non-adulterated feed (also in the form of cracked corn) was used.
In this approach to controlling the goose population at the site of Example 1, a commercially available animal feeder with a 200 lb. capacity tripod mounted hopper and SOLAR ELITE® dispensing head were obtained from On Time Wildlife Feeders (2488 Hwy 33, Ruston, La. 71270, U.S.A.). The feeder was modified as described in Example 5 to become a repellent station. The repellent reservoir was filled with an 8% solution of methyl anthranilate solution (prepared using fifty-five percent of a commercially available REJEX-IT® solution and forty-five percent water) and the flow rate from the repellent reservoir was adjusted to be approximately 0.0025 liters per second. The hopper of the repellent station was then filled with cracked corn.
In FIG. 1a a portion of the site described in Example 1 is depicted. […]

With `COC(=O)c1ccccc1N` [methyl anthranilate] the “acceptance of repellent-adulterated cracked corn by geese” value (8% methyl anthranilate solution sprayed on cracked corn at the repellent station, approx. 0.0025 liters per second) was “intolerable” and the “return of geese to the grassy area where they are not desired” value (repellent station with 8% methyl anthranilate solution plus unadulterated cracked corn on paved area, length of trial (six weeks)) was “did not return to grassy area 100”.
